Data from US20040092588A1, “Antiseptic for wounds and mucous membranes” (priority 2001, published 2004).

System: human amnion cells (FL cells)
Assay: neutral red uptake cytotoxicity test
Format: cell-based
Details: 24 h at 37° C.
Description: In this test, adherent cultures of human amnion cells (FL cells) are incubated for 24 h at 37° C. with the desired concentration of the test substance in complete MEM culture medium with 5% FBS in a 5% CO2/air atmosphere. The culture medium and test substance are then removed, and new culture medium with neutral red is added. Since vital FL cells take up the dye neutral red in their lysosomes, the intensity of the eluted red coloration is correlated with the proportion of living cells. The intensity is automatically determined by the absorbance at a 540 nm test wavelength/655 nm reference wavelength. Information about the cytotoxic activity of the test substance can be obtained by comparison with a control group that was incubated with phosphate-buffered salt solution (PBS) instead of with the test substance. In addition, this model can be used to test and compare different formulations.
In the present test, different concentrations of octenidine dihydrochloride in PBS and Octenisept® (containing octenidine dihydrochloride and phenoxyethanol) were compared with each other and with PBS. The concentration values refer to the concentration of octenidine dihydrochloride.
The measured absorbances are plotted in FIGS. 1-2. Each measurement is based on 32 individual measurements. Inferential statistical analysis was performed by the U-test. […]

CCCCCCCCN=c1ccn(CCCCCCCCCCn2ccc(=NCCCCCCCC)cc2)cc1.Cl.Cl [octenidine dihydrochloride]
cytotoxic activity relative to comparable concentrations in Octenisept: significantly lower | absorbance (neutral red, 540 nm/655 nm) relative to Octenisept (all tested concentrations, U-test): significantly elevated
